Consider 13 compounds from PubChem BioAssay (NCI).

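Exposure lasted 48 hours, with cells grown in 96-well plates and compounds tested at five concentrations. The concentration for full growth arrest is given as TGI.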

Some test systems named below: A549 NSCLC; HS 578T breast; CCRF-CEM leukemia; EKVX NSCLC; IGROV1 ovarian; SF-295 CNS; NCI-H460 lung; HOP-92 NSCLC; HT29 colon; M14 melanoma; K-562 leukemia; NCI-H226 lung; HCT-116 colon; T-47D breast; TK-10 renal; SK-OV-3 ovarian; COLO 205 colon; HL-60(TB) leukemia; SF-539 CNS.
Assay in all cases: NCI anticancer screen, dose series, 48 h

On to `c1ccc2c(CSCc3cccc4ccccc34)cccc2c1`, for which the TGI in the test on A549 NSCLC, in the test on HS 578T breast, with CCRF-CEM leukemia, in the test with EKVX NSCLC, in the test on IGROV1 ovarian and with SF-295 CNS was greater than 100 µM throughout. In addition, the TGI in the test on NCI-H460 lung, in the test on HOP-92 NSCLC, in the test with HT29 colon, in the test with M14 melanoma, in the test on K-562 leukemia and in the test on NCI-H226 lung was greater than 100 µM each time. In addition, the TGI in the test on HCT-116 colon, with T-47D breast and with TK-10 renal was greater than 100 µM in each case.

As for `CC(C)(C)[Si](OC1CCOC1=O)(c1ccccc1)c1ccccc1` (centres undefined), the TGI in the test with A549 NSCLC is 62.7 µM; in the test on CCRF-CEM leukemia, greater than 100 µM; with EKVX NSCLC, greater than 100 µM; in the test on SK-OV-3 ovarian it was greater than 100 µM; in the test with IGROV1 ovarian, greater than 100 µM; in the test on COLO 205 colon it was greater than 10 µM. For the same compound, the TGI was 60.2 µM with SF-295 CNS; greater than 100 µM with HL-60(TB) leukemia; 49.3 µM in the test with NCI-H460 lung; greater than 10 µM in the test with HOP-92 NSCLC; 32.3 µM in the test with HT29 colon; 72.3 µM in the test with SF-539 CNS. The TGI in the test on M14 melanoma was 38.4 µM; with HCT-116 colon, 26.6 µM; in the test with TK-10 renal, 84.6 µM.

With `C[n+]1cccc(NC(=O)c2ccc(NC(=O)C34CCC(C(=O)Nc5ccc(C(=O)Nc6ccc[n+](C)c6)cc5)(CC3)CC4)cc2)c1`, the TGI in the test on A549 NSCLC is greater than 100 µM; in the test with CCRF-CEM leukemia, greater than 100 µM; with EKVX NSCLC it was greater than 100 µM; in the test with IGROV1 ovarian, greater than 100 µM; in the test on SF-295 CNS, greater than 100 µM; in the test with HL-60(TB) leukemia it was 9.33 µM. Besides, the TGI with NCI-H460 lung, in the test on HOP-92 NSCLC, with HT29 colon, in the test with SF-539 CNS, in the test with M14 melanoma and in the test with K-562 leukemia was greater than 100 µM each time. Moreover, the TGI in the test with NCI-H226 lung and in the test with HCT-116 colon was greater than 100 µM each time.

For `CC(=O)Oc1ccccc1`, the TGI in the test with A549 NSCLC, in the test on CCRF-CEM leukemia, in the test with EKVX NSCLC, in the test with IGROV1 ovarian, in the test with SF-295 CNS and in the test on HL-60(TB) leukemia was greater than 100 µM each time. Also, the TGI in the test on NCI-H460 lung, in the test on HT29 colon, with SF-539 CNS, in the test on M14 melanoma, in the test with K-562 leukemia and with NCI-H226 lung was greater than 100 µM in each case. Further, the TGI in the test on HCT-116 colon was greater than 100 µM.

For `Cc1ccc([N+](=O)[O-])cc1S(=O)(=O)Nc1ccc(C2=NN(S(=O)(=O)c3cc([N+](=O)[O-])ccc3C)C(c3ccccc3)C2)cc1` (centres undefined), the TGI in the test on A549 NSCLC is greater than 100 µM; in the test on HS 578T breast it was 21.2 µM; with CCRF-CEM leukemia, greater than 100 µM; in the test with EKVX NSCLC, greater than 100 µM; in the test on SK-OV-3 ovarian, greater than 100 µM; in the test with IGROV1 ovarian, greater than 100 µM. The TGI was 78.8 µM with COLO 205 colon; greater than 100 µM in the test with SF-295 CNS; greater than 100 µM in the test with HL-60(TB) leukemia; 55.5 µM in the test with NCI-H460 lung; greater than 100 µM in the test on HOP-92 NSCLC; greater than 100 µM in the test on HT29 colon. Also, the TGI in the test with M14 melanoma is 98.1 µM; with K-562 leukemia it was greater than 100 µM; with NCI-H226 lung it was greater than 100 µM; with HCT-116 colon, 51.8 µM; in the test on T-47D breast, greater than 100 µM; in the test on TK-10 renal, greater than 100 µM.

In the case of `Cc1c2ccccc2c(C2C3C(=O)N(c4ccc(Br)cc4)C(=O)C3ON2C(C(N)=O)c2ccccc2)c2ccccc12` (centres undefined), the TGI with A549 NSCLC amounted to 14.1 µM; with CCRF-CEM leukemia it was 22.4 µM; in the test with EKVX NSCLC, 31.7 µM; in the test on SK-OV-3 ovarian, 46 µM; in the test with IGROV1 ovarian it was 18.2 µM; in the test on COLO 205 colon it was 3.33 µM. Further, the TGI came to 58.5 µM in the test with SF-295 CNS; 14 µM in the test with HL-60(TB) leukemia; 22.2 µM in the test with NCI-H460 lung; 39.4 µM with HOP-92 NSCLC; 7.35 µM with HT29 colon; 17.7 µM with SF-539 CNS. In addition, the TGI in the test with M14 melanoma is greater than 100 µM; in the test with K-562 leukemia it was greater than 100 µM; in the test with NCI-H226 lung it was 30 µM; with HCT-116 colon it was greater than 100 µM; in the test on T-47D breast, 36.4 µM.

For the compound `C[C@H]1C[C@@H]2[C@H]([C@@H](O)C[C@@]3(C)[C@H]2CC[C@]3(O)C(=O)CO)[C@@]2(C)C=CC(=O)C=C12`, the TGI in the test on A549 NSCLC, in the test with CCRF-CEM leukemia, in the test on SK-OV-3 ovarian, with IGROV1 ovarian, with COLO 205 colon and with HL-60(TB) leukemia was greater than 100 µM throughout. Besides, the TGI with NCI-H460 lung, with HOP-92 NSCLC, in the test with HT29 colon, in the test with M14 melanoma, in the test with K-562 leukemia and in the test on NCI-H226 lung was greater than 100 µM throughout. The TGI with HCT-116 colon and in the test on TK-10 renal was greater than 100 µM each time.

Regarding `C=CCOC(=O)CC[C@H](NC(=O)[C@@H](CCC(F)(F)F)Cc1ccc(O)cc1)C(=O)OCC=C`, the TGI was greater than 100 µM in the test with A549 NSCLC; greater than 100 µM in the test on HS 578T breast; 73.4 µM in the test on EKVX NSCLC; greater than 100 µM with SK-OV-3 ovarian; greater than 100 µM in the test on IGROV1 ovarian; 40.7 µM with COLO 205 colon. Moreover, the TGI in the test on SF-295 CNS was greater than 100 µM; in the test with HL-60(TB) leukemia, greater than 100 µM; with HOP-92 NSCLC, greater than 100 µM; with HT29 colon, greater than 100 µM; with SF-539 CNS, greater than 100 µM; in the test on M14 melanoma, 42.6 µM. The TGI is greater than 100 µM in the test with K-562 leukemia, greater than 100 µM in the test with NCI-H226 lung, greater than 100 µM with HCT-116 colon and 51.5 µM in the test on T-47D breast.

In the case of `Cc1ccc(O)c(Cc2nc3ccccc3nc2-c2cccc(Cl)c2)c1`, the TGI with A549 NSCLC, with HS 578T breast, with EKVX NSCLC, with SK-OV-3 ovarian, in the test with IGROV1 ovarian and in the test on COLO 205 colon was greater than 100 µM throughout. In addition, the TGI is greater than 100 µM with SF-295 CNS; greater than 100 µM in the test with HL-60(TB) leukemia; greater than 100 µM in the test on NCI-H460 lung; 78.5 µM with HOP-92 NSCLC; greater than 100 µM in the test on HT29 colon; greater than 100 µM in the test with SF-539 CNS. The TGI in the test with M14 melanoma, in the test with K-562 leukemia, in the test on NCI-H226 lung, in the test on HCT-116 colon, in the test with T-47D breast and in the test with TK-10 renal was greater than 100 µM each time.

Consider `CNC(=O)OCc1nc(SC)n(C)c1CO`, for which the TGI with A549 NSCLC, in the test with CCRF-CEM leukemia, in the test with EKVX NSCLC, with SK-OV-3 ovarian, in the test with IGROV1 ovarian and in the test with COLO 205 colon was greater than 100 µM each time. Also, the TGI in the test with SF-295 CNS, in the test on HL-60(TB) leukemia, in the test with NCI-H460 lung, in the test on HOP-92 NSCLC, with HT29 colon and with SF-539 CNS was greater than 100 µM each time. Besides, the TGI in the test with K-562 leukemia, with NCI-H226 lung and in the test with HCT-116 colon was greater than 100 µM throughout.

On to `CCCCc1ccc(N=C(N)N)cc1`, for which the TGI was greater than 100 µM in the test on A549 NSCLC; greater than 100 µM in the test with HS 578T breast; 53.7 µM with CCRF-CEM leukemia; greater than 100 µM in the test on EKVX NSCLC; greater than 100 µM in the test with SK-OV-3 ovarian; 71.7 µM in the test with IGROV1 ovarian. Moreover, the TGI with COLO 205 colon was 35.4 µM; in the test on SF-295 CNS, 87.3 µM; in the test with HL-60(TB) leukemia it was 73.6 µM; with NCI-H460 lung it was 61.8 µM; in the test on HOP-92 NSCLC it was greater than 100 µM; in the test on HT29 colon it was 93.5 µM. Moreover, the TGI in the test with M14 melanoma is 63.5 µM; in the test on K-562 leukemia, 83.4 µM; in the test with NCI-H226 lung it was 91.5 µM; in the test on HCT-116 colon, greater than 100 µM; in the test on T-47D breast it was greater than 100 µM; in the test with TK-10 renal it was 63.9 µM.

`COc1cc2c(c(OC)c1OC)-c1ccc(OC)c(=O)cc1C(NC(=O)COc1ccccc1)CC2` (centres undefined): the TGI in the test on A549 NSCLC was greater than 100 µM; in the test on HS 578T breast, greater than 31.6 µM; in the test on CCRF-CEM leukemia it was greater than 63.4 µM; in the test with EKVX NSCLC, greater than 100 µM; in the test with SK-OV-3 ovarian, 0.766 µM; with IGROV1 ovarian, greater than 92.3 µM. In addition, the TGI with COLO 205 colon was less than 0.01 µM; with SF-295 CNS it was 0.0874 µM; with NCI-H460 lung, greater than 10.6 µM; in the test on HOP-92 NSCLC it was 2.91 µM; in the test on HT29 colon, less than 0.146 µM; with SF-539 CNS, less than 0.01 µM. In addition, the TGI in the test on M14 melanoma was greater than 21.5 µM; in the test with K-562 leukemia, 60.8 µM; in the test on NCI-H226 lung it was 0.423 µM; in the test with T-47D breast it was greater than 100 µM; with TK-10 renal, greater than 93.7 µM.

For the compound `C[C@@H]1C[C@H]2[C@@H]3CCC4=CC(=O)C=C[C@]4(C)[C@@]3(F)[C@@H](O)C[C@]2(C)[C@@]1(O)C(=O)CO`, the TGI with A549 NSCLC, in the test on CCRF-CEM leukemia, in the test with EKVX NSCLC, with SK-OV-3 ovarian, in the test on IGROV1 ovarian and in the test on COLO 205 colon was greater than 100 µM in each case. The TGI in the test on HL-60(TB) leukemia, in the test with HOP-92 NSCLC, with HT29 colon, in the test on M14 melanoma, in the test on K-562 leukemia and with NCI-H226 lung was greater than 100 µM each time. For the same compound, the TGI in the test on HCT-116 colon and with TK-10 renal was greater than 100 µM in each case.
